Measurements as given in patent US20230390373A1, “A LIVE STRAIN OF STAPHYLOCOCCUS AUREUS AND USES THEREOF” (priority 2020, published 2023).
“Also recorded” adds a separate entry of the source. Residues, ends and D or L forms follow the SMILES beside them. *: point of attachment. Cbz = O=C(OCc1ccccc1)*; CH2F = FC*

What was measured:
[1] = system: HMDM; assay: Cell viability assay of infected HMDM; format: cell-based, human; settings: MOI=100, 8 hours, Z-VADFMK 25 μM, VX765 20 μM, NSA 5 μM
Protocol: Human peripheral blood mononuclear cells (PBMC) were isolated from human buffy coat (provided by Department of Microbiology, The University of Hong Kong, Li Ka Shing Faculty of Medicine) by Ficoll-Paque gradient protocol. In brief, 30 mL of 1:1 PBS diluted buffy coat from healthy donors were layered on Ficoll-Paque Plus (GE Healthcare, Life Sciences) and centrifuged at 450×g for 30 min at room temperature. Separated layers of PBMC were collected and then washed 2 times with RPMI-1640 medium. After washing, the cells were resuspended in 4 mL red blood cell lysing buffer (Biolegend, RBC Lysis Buffer) and incubated for 5 min at room temperature. Following two subsequent washes, the cell pellet was resuspended in RPMI-1640 media supplemented with 10% FBS, 100 U/ml penicillin and 0.1 mg/ml streptomycin for further infection experiments. To differentiate human monocytes-derived macrophages (HMDM), isolated PBMC were seeded on poly-L-lysine coated coverslips in 24 well plate and cultured in RPMI-1640 media supplemented with L-glutamine, 10% FBS, 1×penicillin/streptomycin, 10 mM HEPES, 50 ng/mL hGM-CSF (PeproTech) for up to 7 days differentiation.
One day before bacterial infection experiments, S. aureus strains were inoculated and cultured with BHI broth for overnight. Next day, overnight culture of bacteria strains were sub-cultured in fresh BHI broth at a dilution of 1:100 and grown at 37° C. Following 3 hours of culturing, S. aureus were harvested and washed for two to three times in cold PBS by centrifugation. […] The number of bacteria was determined by serial dilution and colony formation on BHI agar plates. […]
Culture supernatants of relevant cells were collected and centrifuged at 13000 rpm for 4 min to get rid of cell debris and bacteria. Levels of LDH in culture supernatants were measured by CytoTox 96 Non-Radioactive Cytotoxicity Assay kit (Promega). Cell viability was measured by the CellTiter Glo Luminescent Cell Viability Assay (Promega). […]

[2] = system: BALB/c mice; assay: Th17 response in inhibitor-pretreated mice infected with wild type S. aureus; format: in vivo; settings: splenocytes re-stimulated MOI=5, 4 days
Protocol: Protocol for harvest and calculation of wild type and variant S. aureus strains was the same as described above. To induce systemic blood infection model of S. aureus in FIG. 1, 200 ul of bacterial suspension (1×10^7 CFU) was administered intravenously into naïve 6-wk-old female BALB/c mice. To establish re-infection model in FIG. 5, mice were intraperitoneally infected with WT S. aureus (USA300), adsA mutant strain or WT S. aureus (USA300)/adsA mutant strain (4×10^7 CFU) for a total of 3 times at 7 days interval. After 14 days convalescent period, mice were re-challenged with lethal dose of WT USA300 S. aureus (4×10^7 CFU) or sublethal dose of WT USA300 S. aureus (2×10^7 CFU). Upon bacterial infection, health conditions of mice were frequently monitored in compliance with humane end points (HEP) form. To measure staphylococcal burden in blood, after 2 h of i.v. infection, mice were anaesthetized by intraperitoneal injection of 80-120 mg ketamine and 3-6 mg xylazine per kilogram of body weight and blood was collected via tail vein. Blood samples were incubated on ice in 0.5% saponin/PBS for lysis of host cells. Later on, serial dilutions were performed on BHI agar plates for colony formation. To enumerate bacteria in tissues, mice were euthanized by CO2 inhalation, organs including lungs, spleens and kidneys were harvested and homogenized in 1% Triton X-100/PBS. Aliquots of homogenates were serially diluted and spread on BHI agar plates for colony formation. For histopathology, kidneys were incubated in 4% paraformaldehyde (PFA) at room temperature for 24 h. Tissues were embedded in paraffin, thin sectioned, stained with hematoxylin-eosin, and examined by microscopy.
Animals were sacrificed at indicated time points in re-infection model. Spleens were harvested and grinded for cells suspension. After centrifugation, splenocytes were experienced red blood cell lysing, washes and filtering, and single cells suspension was cultured in RPMI-1640 media supplemented with 10% FBS, 100 U/ml penicillin and […]. […]

[3] = system: mouse bone marrow derived dendritic cells (BMDC); assay: IL-1β release / inflammasome activation in infected BMDC; format: cell-based; settings: MOI=20, 6 hours; for IL-1β production/release in S. aureus infected BMDC: MCC950 10 μM, Cytochalasin D 5 μM, ZM241385 10 μM
Protocol: (§1) Bone marrow cells extracted from femur of 8-12 weeks old female BALB/c mice were culture in RPMI-1640 medium supplemented with L-glutamine, 10% heat inactivated-FBS, 1×penicillin/streptomycin, 10 mM HEPES, 50 μM-β mercaptoethanol, 20 ng/ml mGM-CSF (PeproTech) for up to 7 days differentiation.
One day before bacterial infection experiments, S. aureus strains were inoculated and cultured with BHI broth for overnight. Next day, overnight culture of bacteria strains were sub-cultured in fresh BHI broth at a dilution of 1:100 and grown at 37° C. Following 3 hours of culturing, S. aureus were harvested and washed for two to three times in cold PBS by centrifugation. Finally, S. aureus strains were diluted with desired volume of PBS, yielding an OD600 of 0.5 (1×10^8 CFU/ml), and further centrifuged and resuspended at desired bacterial concentration. The number of bacteria was determined by serial dilution and colony formation on BHI agar plates. Mammalian cells were plated in 24-well plates at a number of 4×10^5 per well and infected with S. aureus strains in antibiotic free medium at the indicated MOI.
Culture supernatants of relevant cells were collected and centrifuged at 13000 rpm for 4 min to get rid of cell debris and bacteria. Levels of LDH in culture supernatants were measured by CytoTox 96 Non-Radioactive Cytotoxicity Assay kit (Promega). Cell viability was measured by the CellTiter Glo Luminescent Cell Viability Assay (Promega). ELISA assay was conducted according manufactures' instructions.
For detection of cleaved form of caspase-1, cell culture supernatants were precipitated by methanol-chloroform method. Briefly, supernatant was mixed with an equal volume of methanol and 0.25 volumes of chloroform, vortexed and centrifuge for 15 min at 20000 g. The upper phase was discarded and the interphase was mixed with methanol. After centrifugation for 5 min at 20000 g, the pellet was resuspended in 2×SDS-PAGE sample buffer and boiled for 5 min at 100° C. Protein samples were separated by 15% SDS-PAGE gels and were transferred onto PVDF membranes. Total cell lysates lysed by RIPA buffer (50 mM Tris-Cl, pH 7.4, 150 mM NaCl, 1% Triton X-100, 0.1% SDS, 1% sodium deoxycholate and 0.5 mM EDTA) supplemented with 1× protease inhibitor cocktail (Roche) were boiled for 5 min at 100° C. Lysate aliquots were separated by SDS-PAGE gels and transferred onto PVDF membranes. Blots were probed with primary antibody: rabbit anti-caspase-1 (1:1000 dilution, 179515 from Abcam, USA), mouse anti-β actin (1:5000 dilution, A5316 from Sigma). Anti-rabbit or mouse antibodies conjugated to HRP were used as secondary reagents.

[4] = system: NLRP3; assay: NLRP3 expression in BMDC (qPCR, immunoblot); format: cell-based, mouse; settings: 4 hours
Protocol: as §1
For detection of cleaved form of caspase-1, cell culture supernatants were precipitated by methanol-chloroform method. Briefly, supernatant was mixed with an equal volume of methanol and 0.25 volumes of chloroform, vortexed and centrifuge for 15 min at 20000 g. The upper phase was discarded and the interphase was mixed with methanol. After centrifugation for 5 min at 20000 g, the pellet was resuspended in 2×SDS-PAGE sample buffer and boiled for 5 min at 100° C. Protein samples were separated by 15% SDS-PAGE gels and were transferred onto PVDF membranes. […]
Total RNA was extracted from cells using TRIzol Reagent (Invitrogen) and 1 μg total RNA was used for reverse transcription (Takara) according to manufactures' instructions. The cDNA was then used for quantitative RT-PCR to analyze relevant mRNA expression using Applied Biosystems StepOnePlus™ Real-Time PCR System and SYBR Premix Ex Taq kit (Takara) according to the manufacturer's instruction. The data were normalized to GAPDH and fold change in gene expression was calculated by comparative CT method (2^−ΔΔCT).

Row | Compound | effect on S. aureus / adsA mutant-induced cell death [1] | Th17 response / IL-17A production vs vehicle control [2] | IL-1β production/release in S. aureus infected BMDC [3] | further results
1 | CCO[C@@H]1OC(=O)C[C@@H]1NC(=O)[C@@H]1CCCN1C(=O)[C@@H](NC(=O)c1ccc(N)c(Cl)c1)C(C)(C)C [VX765] | dramatically decrease adsA mutant-induced cell death | decreased IL-17A production |  | 
2 | COC(=O)C[C@H](NC(=O)[C@H](C)NC(=O)[C@@H](NC(=O)OCc1ccccc1)C(C)C)C(=O)CF [Z-VAD-FMK] (Cbz-Val-Ala-Asp(OMe)-CH2F) | dramatically decrease adsA mutant-induced cell death |  |  | 
3 | C=C1[C@@H](C)[C@H]2[C@H](Cc3ccccc3)NC(=O)[C@]23[C@H](OC(C)=O)/C=C/[C@@](C)(O)C(=O)[C@@H](C)C/C=C/[C@H]3[C@@H]1O [Cytochalasin D] |  |  | nearly suppressed IL-1β production | IL-1β production/release in S. aureus infected BMDC ([3]; listed as cytochalasin D): had little IL-1β production
4 | CC(C)(O)c1coc(S(=O)(=O)NC(=O)Nc2c3c(cc4c2CCC4)CCC3)c1 [MCC950] |  | decreased IL-17A production | largely dampen IL-1β production; also recorded: almost prevented the release of IL-1β; also recorded: had little IL-1β production | 
5 | Cn1c(=O)c2c(ncn2C)n(C)c1=O [caffeine, Caffeine] |  | did not have any influence on Th17 immunity |  | 
6 | COc1nccnc1NS(=O)(=O)c1ccc(NC(=O)/C=C/c2ccc([N+](=O)[O-])s2)cc1 [necrosulfonamide, Necrosulfonamide] | did not have apparent effect on S. aureus induced cytotoxicity |  |  | 
7 | Nc1nc(NCCc2ccc(O)cc2)nc2nc(-c3ccco3)nn12 [ZM241385] |  |  | improved IL-1β production | 
8 | Nc1ncnc2c1ncn2[C@@H]1O[C@H](CO)[C@@H](O)[C@H]1O [adenosine, Adenosine] |  |  |  | expression level of NLRP3 (qPCR) ([4]; BMDC activated by adsA mutant S. aureus or Pam3CSK4 / LPS (100 ng/ml), adenosine 100 μM): decreased the expression level of NLRP3; NLRP3 expression at protein level ([4]; BMDC pre-treated with a series of dose of adenosine, LPS 100 ng/ml): inhibited NLRP3 expression at protein level in a dose-dependent manner; inflammasome activation (IL-1β release and immunoblot) in BMDC infected with adsA mutant ([3]; pretreated with adenosine 100 μM): impaired inflammasome activation
